Here are results for twelve compounds from US20240239792A1, “MODULATORS OF BCL-2 OR BCL-2/BCL-XL AND USES THEREOF” (APPICINE THERAPEUTICS (HK) LIMITED, priority 2021, published 2024).

In one assay the test system is DOHH2 cells. Description: CellTiter-Glo cell proliferation assay, DOHH2 cells. Type of assay: cell-based. Conditions: Homo sapiens, DOHH-2, 72 hours. The gist of the method: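 DOHH2 cells seeded in DMEM + 10% FBS, exposed to serially diluted compound for 72 h at 37 °C, 5% CO2. Viability read by CellTiter-Glo luminescence; GI50 calculated.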
(In general: Cellular ATP, detected with luciferase, serves as a proxy for viable cell number.)

The target of another assay is T1, BCL-XL (Homo sapiens, UniProt Q07817).
T1 construct: purchased Cisbio 63ADK000CB04PEG
The assay is described as follows: HTRF BCL-XL/BAK assay (Cisbio). Type of assay: binding. Conditions: recombinant human Tag1-BCL-XL 2 nM, Tag2-BAK 5 nM. How it is done: (§1) Then the pre-mixed anti-Tag1-Eu^3+ and anti-tag2-XL665 were added to the plate and further incubated at room temperature for another 2 hours. The signals ([…]) were read on Envision 2104 instrument. The IC50 for each compound was derived from fitting the signal of 665/615 nM to the increasing compound concentration.
(§2) Using the above assays, the following compounds were tested.
A general note: TR-FRET usually uses a lanthanide donor and a delayed reading to cut background.

The next assay concerns the target T2, BCL-2 (Homo sapiens, UniProt P10415).
T2 construct: purchased Cisbio 63ADK000CB01PEG
The assay is described as follows: HTRF BCL-2/BAK assay (Cisbio). Type of assay: binding. Conditions: recombinant human Tag1-BCL-2 2 nM, Tag2-BAK 10 nM. Here is the method: as §1, §2

T1 sequence (Q07817 whole entry): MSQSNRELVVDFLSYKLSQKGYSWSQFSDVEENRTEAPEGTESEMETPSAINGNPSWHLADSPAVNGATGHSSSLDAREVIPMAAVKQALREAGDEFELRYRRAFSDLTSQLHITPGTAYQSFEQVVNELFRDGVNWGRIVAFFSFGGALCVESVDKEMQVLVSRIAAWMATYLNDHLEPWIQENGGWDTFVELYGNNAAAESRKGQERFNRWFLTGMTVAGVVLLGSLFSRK
T2 sequence (P10415 whole entry): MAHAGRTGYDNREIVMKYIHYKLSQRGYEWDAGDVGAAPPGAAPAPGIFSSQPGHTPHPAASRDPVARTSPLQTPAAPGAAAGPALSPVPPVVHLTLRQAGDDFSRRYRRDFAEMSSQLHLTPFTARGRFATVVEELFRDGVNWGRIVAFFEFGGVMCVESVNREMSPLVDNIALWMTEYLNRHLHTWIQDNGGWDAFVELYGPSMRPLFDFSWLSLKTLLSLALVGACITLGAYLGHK

In the case of `O=C(NS(=O)(=O)c1ccc(NCC2CCOCC2)c([N+](=O)[O-])c1)c1ccc(N2CCN(C3CCCCc4c(-c5ccn[nH]5)cccc43)CC2)cc1Oc1cnc2[nH]ccc2c1` (stereo not drawn) [Compound 54, 4-(4-(1-(1H-pyrazol-3-yl)-6,7,8,9-tetrahydro-5H-benzo[7]annulen-5-yl)piperazin-1-yl)-2-((1H-pyrrolo[2,3-b]pyridin-5-yl)oxy)-N-((3-nitro-4-(((tetrahydro-2H-pyran-4-yl)methyl)amino)phenyl)sulfonyl)benzamide], the 50% growth inhibitory concentration (GI50) (in general, the concentration at which growth is held to half of that of the control) in the assay with DOHH2 cells lay in the range of 500 to 5000 nM. In addition, the half-inhibitory concentration (IC50) (usually the concentration needed to halve the response being measured) at BCL-XL is over 2000 nM; on BCL-2, under 20 nM.
In the same order, the values of `O=C(NS(=O)(=O)c1ccc(NCC2CCOCC2)c([N+](=O)[O-])c1)c1ccc(N2CCN(C3CCCCc4cc(Br)ccc43)CC2)cc1Oc1cnc2[nH]ccc2c1` (stereo not drawn) [Compound 23, 2-((1H-pyrrolo[2,3-b]pyridin-5-yl)oxy)-4-(4-(2-bromo-6,7,8,9-tetrahydro-5H-benzo[7]annulen-5-yl)piperazin-1-yl)-N-((3-nitro-4-(((tetrahydro-2H-pyran-4-yl)methyl)amino)phenyl)sulfonyl)benzamide] are 500 to 5000 nM, 200 to 2000 nM and 20 to 200 nM.
In the assay on DOHH2 cells, `O=C(NS(=O)(=O)c1ccc(NCC2CCOCC2)c([N+](=O)[O-])c1)c1ccc(N2CCN([C@@H]3CCCCc4c3cccc4[N+](=O)[O-])CC2)cc1Oc1cnc2[nH]ccc2c1` [Compound 73, (R)-2-((1H-pyrrolo[2,3-b]pyridin-5-yl)oxy)-N-((3-nitro-4-(((tetrahydro-2H-pyran-4-yl)methyl)amino)phenyl)sulfonyl)-4-(4-(1-nitro-6,7,8,9-tetrahydro-5H-benzo[7]annulen-5-yl)piperazin-1-yl)benzamide] came in with a GI50 of 50 to 500 nM. The IC50 on BCL-XL is 20 to 200 nM; at BCL-2, under 20 nM.
In the case of `CN1CCN(CCNc2ccc(S(=O)(=O)NC(=O)c3ccc(N4CCN(C5CCCCc6c(Cl)cccc65)CC4)cc3Oc3cnc4[nH]ccc4c3)cc2[N+](=O)[O-])CC1` (stereo not drawn) [Compound 32, 2-((1H-pyrrolo[2,3-b]pyridin-5-yl)oxy)-4-(4-(1-chloro-6,7,8,9-tetrahydro-5H-benzo[7]annulen-5-yl)piperazin-1-yl)-N-((4-((2-(4-methylpiperazin-1-yl)ethyl)amino)-3-nitrophenyl)sulfonyl)benzamide], in the assay with DOHH2 cells, the concentration for 50% growth inhibition (GI50) is under 50 nM. Besides, the IC50 at BCL-XL and at BCL-2 was under 20 nM each time.
On to `O=C(NS(=O)(=O)c1ccc(NCCN2CC3CC2CO3)c([N+](=O)[O-])c1)c1ccc(N2CCN(C3CCCCc4c(Cl)cccc43)CC2)cc1Oc1cnc2[nH]ccc2c1` (stereo not drawn) [Compound 41, 2-((1H-pyrrolo[2,3-b]pyridin-5-yl)oxy)-N-((4-((2-(2-oxa-5-azabicyclo[2.2.1]heptan-5-yl)ethyl)amino)-3-nitrophenyl)sulfonyl)-4-(4-(1-chloro-6,7,8,9-tetrahydro-5H-benzo[7]annulen-5-yl)piperazin-1-yl)benzamide], for which, in the assay on DOHH2 cells, the concentration for 50% growth inhibition (GI50) lay within 50 to 500 nM. Moreover, the 50% inhibitory concentration (IC50) at BCL-XL and at BCL-2 was under 20 nM throughout.
Take `O=C(NS(=O)(=O)c1ccc(NCC2CCC3(CC2)COC3)c([N+](=O)[O-])c1)c1ccc(N2CCN([C@@H]3CCCCc4c(Br)cc(F)cc43)CC2)cc1Oc1cnc2[nH]ccc2c1` [Compound 79, (R)-2-((1H-pyrrolo[2,3-b]pyridin-5-yl)oxy)-N-((4-(((2-oxaspiro[3.5]nonan-7-yl)methyl)amino)-3-nitrophenyl)sulfonyl)-4-(4-(1-bromo-3-fluoro-6,7,8,9-tetrahydro-5H-benzo[7]annulen-5-yl)piperazin-1-yl)benzamide]: the concentration for 50% growth inhibition (GI50) with DOHH2 cells lay in the range of 50 to 500 nM. In addition, the IC50 on BCL-XL is 200 to 2000 nM; on BCL-2, under 20 nM.
The compound `CC(=O)N1CCN(CCNc2ccc(S(=O)(=O)NC(=O)c3ccc(N4CCN(C5CCCCc6c(Cl)cccc65)CC4)cc3Oc3cnc4[nH]ccc4c3)cc2[N+](=O)[O-])CC1` (stereo not drawn) [Compound 39, 2-((1H-pyrrolo[2,3-b]pyridin-5-yl)oxy)-N-((4-((2-(4-acetylpiperazin-1-yl)ethyl)amino)-3-nitrophenyl)sulfonyl)-4-(4-(1-chloro-6,7,8,9-tetrahydro-5H-benzo[7]annulen-5-yl)piperazin-1-yl)benzamide] came in with a 50% growth inhibitory concentration (GI50) with DOHH2 cells of under 50 nM. The IC50 is 20 to 200 nM at BCL-XL and under 20 nM at BCL-2.
In the assay with DOHH2 cells, `O=C1CCC(N2CCN(c3ccc(C(=O)NS(=O)(=O)c4ccc(NCC5CCOCC5)c([N+](=O)[O-])c4)c(Oc4cnc5[nH]ccc5c4)c3)CC2)c2ccccc2N1` (stereo not drawn) [Compound 28, 2-((1H-pyrrolo[2,3-b]pyridin-5-yl)oxy)-N-((3-nitro-4-(((tetrahydro-2H-pyran-4-yl)methyl)amino)phenyl)sulfonyl)-4-(4-(2-oxo-2,3,4,5-tetrahydro-1H-benzo[b]azepin-5-yl)piperazin-1-yl)benzamide] gave a GI50 of over 5000 nM. For the same compound, the concentration for half-maximal inhibition (IC50) on BCL-XL was over 2000 nM; at BCL-2, 20 to 200 nM.
In the same order, the values of `CN1CCC(CNc2ccc(S(=O)(=O)NC(=O)c3ccc(N4CCN([C@@H]5CCCCc6c(Br)cccc65)CC4)cc3Oc3cnc4[nH]ccc4c3)cc2[N+](=O)[O-])CC1` [Compound 69, (R)-2-((1H-pyrrolo[2,3-b]pyridin-5-yl)oxy)-4-(4-(1-bromo-6,7,8,9-tetrahydro-5H-benzo[7]annulen-5-yl)piperazin-1-yl)-N-((4-(((1-methylpiperidin-4-yl)methyl)amino)-3-nitrophenyl)sulfonyl)benzamide] are under 50 nM, under 20 nM and under 20 nM.
In the same order, the values of `CC(C)C(=O)N1CCC2(CC1)CC(CNc1ccc(S(=O)(=O)NC(=O)c3ccc(N4CCN([C@@H]5CCCCc6c(Cl)cccc65)CC4)cc3Oc3cnc4[nH]ccc4c3)cc1[N+](=O)[O-])C2` [Compound 124, (R)-2-((1H-pyrrolo[2,3-b]pyridin-5-yl)oxy)-4-(4-(1-chloro-6,7,8,9-tetrahydro-5H-benzo[7]annulen-5-yl)piperazin-1-yl)-N-((4-(((7-isobutyryl-7-azaspiro[3.5]nonan-2-yl)methyl)amino)-3-nitrophenyl)sulfonyl)benzamide] are under 50 nM, 20 to 200 nM and under 20 nM.
`CN1CCC(CNc2ccc(S(=O)(=O)NC(=O)c3ccc(N4CCN([C@@H]5CCCCc6c(Cl)cc(F)cc65)CC4)cc3Oc3cnc4[nH]ccc4c3)cc2[N+](=O)[O-])CC1` [Compound 86, (R)-2-((1H-pyrrolo[2,3-b]pyridin-5-yl)oxy)-4-(4-(1-chloro-3-fluoro-6,7,8,9-tetrahydro-5H-benzo[7]annulen-5-yl)piperazin-1-yl)-N-((4-(((1-methylpiperidin-4-yl)methyl)amino)-3-nitrophenyl)sulfonyl)benzamide] gave a GI50 in the assay with DOHH2 cells of under 50 nM. Besides, the 50% inhibitory concentration (IC50) at BCL-XL and on BCL-2 was under 20 nM each time.
Take `Cc1ccc(S(=O)(=O)N2CCCC(N3CCN(c4ccc(C(=O)NS(=O)(=O)c5ccc(NCC6CCOCC6)c([N+](=O)[O-])c5)c(Oc5cnc6[nH]ccc6c5)c4)CC3)c3ccccc32)cc1` (stereo not drawn) [Compound 76, 2-((1H-pyrrolo[2,3-b]pyridin-5-yl)oxy)-N-((3-nitro-4-(((tetrahydro-2H-pyran-4-yl)methyl)amino)phenyl)sulfonyl)-4-(4-(1-tosyl-2,3,4,5-tetrahydro-1H-benzo[b]azepin-5-yl)piperazin-1-yl)benzamide]: in the assay on DOHH2 cells, the concentration for 50% growth inhibition (GI50) is 500 to 5000 nM. Moreover, the IC50 on BCL-XL is 200 to 2000 nM; on BCL-2, under 20 nM.
